Assay results reported in ChEMBL document CHEMBL4028837, “Acetanilide and bromoacetyl-lysine derivatives as activators for human histone deacetylase 8” (Bioorg Med Chem Lett, 2017).

Assays:
[1] = biological target: T1, Histone deacetylase 8 (Homo sapiens) (UniProt Q9BY41); experiment: Activation of human HDAC8 deacetylation activity at 50 uM using AMC less CH3CONH-FG-(Nepsilon-acetyl-lysine)-FSW-CONH2 as substrate measured after 10 mins by reverse phase HPLC method relative to control
T1 sequence (whole entry): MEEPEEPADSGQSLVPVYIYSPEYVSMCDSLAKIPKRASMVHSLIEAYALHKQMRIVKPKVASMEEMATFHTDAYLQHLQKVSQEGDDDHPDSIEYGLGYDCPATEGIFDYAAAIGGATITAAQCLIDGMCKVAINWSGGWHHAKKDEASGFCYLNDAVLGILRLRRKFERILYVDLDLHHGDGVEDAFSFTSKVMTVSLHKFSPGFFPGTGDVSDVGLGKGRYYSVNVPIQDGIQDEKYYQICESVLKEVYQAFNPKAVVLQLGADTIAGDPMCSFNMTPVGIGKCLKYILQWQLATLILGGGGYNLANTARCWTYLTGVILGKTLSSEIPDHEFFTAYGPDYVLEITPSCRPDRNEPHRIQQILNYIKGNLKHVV

Homo sapiens [2] = species: Homo sapiens; experiment: Activation of HDAC deacetylation activity in human HeLa nuclear extract at 50 uM using AMC-Fluor-de-Lys-HDAC8 as substrate measured after 5 mins by reverse phase HPLC method relative to control
[3] = biological target: T1, Histone deacetylase 8 (Homo sapiens); experiment: Activation of human HDAC8 deacetylation activity at 50 uM using AMC-Fluor-de-Lys-HDAC8 as substrate measured after 10 mins by reverse phase HPLC method relative to control
Homo sapiens [4] = species: Homo sapiens; experiment: Activation of HDAC deacetylation activity in human HeLa nuclear extract at 50 uM using AMC less CH3CONH-RH-(Nepsilon-acetyl-lysine)-(Nepsilon-acetyl-lysine)-CONH2 as substrate measured after 10 mins by reverse phase HPLC method relative to control
[5] = biological target: T1, Histone deacetylase 8 (Homo sapiens); experiment: Activation of human HDAC8 deacetylation activity assessed as decrease in substrate Kcat at 50 uM using AMC less CH3CONH-FG-(Nepsilon-acetyl-lysine)-FSW-CONH2 as substrate measured after 1.5 mins by reverse phase HPLC method relative to control; design: scale not given: the % may be the effect or the level left
[6] = biological target: T1, Histone deacetylase 8 (Homo sapiens); experiment: Activation of human HDAC8 deacetylation activity assessed as reduction in substrate Km at 50 uM using AMC less CH3CONH-FG-(Nepsilon-acetyl-lysine)-FSW-CONH2 as substrate measured after 1.5 mins by reverse phase HPLC method relative to control
[7] = biological target: T1, Histone deacetylase 8 (Homo sapiens); experiment: Activation of human HDAC8 deacetylation activity assessed as reduction in substrate Kcat at 50 uM using AMC-Fluor-de-Lys-HDAC8 as substrate measured after 1.5 mins by reverse phase HPLC method relative to control
[8] = biological target: T1, Histone deacetylase 8 (Homo sapiens); experiment: Activation of human HDAC8 deacetylation activity assessed as reduction in substrate Km at 50 uM using AMC-Fluor-de-Lys-HDAC8 as substrate measured after 1.5 mins by reverse phase HPLC method relative to control
[9] = biological target: T1, Histone deacetylase 8 (Homo sapiens); experiment: Activation of human HDAC8 deacetylation activity assessed as ratio of Kcat to Km for substrate at 50 uM using AMC less CH3CONH-FG-(Nepsilon-acetyl-lysine)-FSW-CONH2 as substrate measured after 1.5 mins by reverse phase HPLC method relative to control
[10] = biological target: T1, Histone deacetylase 8 (Homo sapiens); experiment: Activation of human HDAC8 deacetylation activity assessed as ratio of Kcat to Km for substrate at 50 uM using AMC-Fluor-de-Lys-HDAC8 as substrate measured after 1.5 mins by reverse phase HPLC method relative to control

| Compound | fold change (FC) [1] | fold change (FC) (Homo sapiens [2]) | fold change (FC) [3] | fold change (FC) (Homo sapiens [4]) | Activity [5] [%] | fold change (FC) [6] | fold change (FC) [7] | fold change (FC) [8] | fold change (FC) [9] | fold change (FC) [10] |
| --- | --- | --- | --- | --- | --- | --- | --- | --- | --- | --- |
| O=C(Nc1ccc(C(F)(F)F)cc1)C(F)(F)F | 1.4 | 0.93 | 1.1 | 0.64 | – | – | – | – | – | – |
| O=C(NC(=S)Nc1ccccc1)c1ccccc1 | 0.5 | 0.69 | 2.2 | 0.58 | – | – | – | – | – | – |
| O=C(Nc1cccc(C(F)(F)F)c1)C(F)(F)F | 2.7 | 0.96 | 1.7 | 0.54 | – | – | – | – | – | – |
| CC(C)(C)OC(=O)N[C@@H](CCCCNC(=O)CBr)C(=O)Nc1ccccc1 | 5.6 | 1.09 | 2.8 | 1.22 | < 40 | 3.6 | 13 | 3.5 | 2.6 | 3.7 |
| CC(=O)Nc1ccc(C(F)(F)F)cc1 | 1.4 | 0.93 | 1.7 | 0.83 | – | – | – | – | – | – |

Second part, the compound after the results:

| fold change (FC) [1] | fold change (FC) (Homo sapiens [2]) | fold change (FC) [3] | fold change (FC) (Homo sapiens [4]) | Activity [5] [%] | fold change (FC) [6] | fold change (FC) [7] | fold change (FC) [8] | fold change (FC) [9] | fold change (FC) [10] | Compound |
| --- | --- | --- | --- | --- | --- | --- | --- | --- | --- | --- |
| 1.3 | 0.89 | 1.7 | 0.81 | – | – | – | – | – | – | CC(=O)Nc1cccc(C(F)(F)F)c1 |
| 1.2 | 0.87 | 1.4 | 1.22 | – | – | – | – | – | – | O=C(Nc1ccccc1C(F)(F)F)C(F)(F)F |
| 1.5 | 0.98 | 1.2 | 1.45 | – | – | – | – | – | – | CC(=O)Nc1ccccc1C(F)(F)F |
